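Method: 48-hour compound exposure of cells in 96-well plates, five concentrations, linear interpolation of endpoints. Here, GI50 denotes the concentration required for 50% inhibition of growth.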 Activity calls are given as the source filed them. No stated cut-off is given here; in the data, active = GI50 up to about 1.1 µM and inactive = higher.
Tests used:
Assay in all cases: DTP human tumour cell line panel, 48 h
EKVX = system: EKVX
Hs-578T = system: Hs-578T
CAKI-1 = system: CAKI-1
A549 = system: A549
NCI-H522 = system: NCI-H522
SF-295 = system: SF-295
HOP-92 = system: HOP-92
SW-620 = system: SW-620
MDA-MB-435 = system: MDA-MB-435
PC-3 = system: PC-3
SN12C = system: SN12C
OVCAR-8 = system: OVCAR-8
Malme-3M = system: Malme-3M
UO-31 = system: UO-31
T47D = system: T47D
OVCAR-3 = system: OVCAR-3
U-251 = system: U-251
NCI/ADR-RES = system: NCI/ADR-RES
HT-29 = system: HT-29
MDA-MB-231 = system: MDA-MB-231
RXF 393 = system: RXF 393
LOX IMVI = system: LOX IMVI
OVCAR-5 = system: OVCAR-5
HCT-15 = system: HCT-15
SK-MEL-2 = system: SK-MEL-2
SNB-75 = system: SNB-75
HCC 2998 = system: HCC 2998
TK-10 = system: TK-10
RPMI-8226 = system: RPMI-8226
MDA-N = system: MDA-N
HOP-62 = system: HOP-62
786-0 = system: 786-0
A498 = system: A498
NCI-H23 = system: NCI-H23
UACC-62 = system: UACC-62
ACHN = system: ACHN
SR = system: SR
M14 = system: M14
IGROV-1 = system: IGROV-1
HL-60 = system: HL-60
SK-MEL-28 = system: SK-MEL-28
K562 = system: K562
COLO 205 = system: COLO 205
BT-549 = system: BT-549
SNB-19 = system: SNB-19
UACC-257 = system: UACC-257
HCT-116 = system: HCT-116
DU-145 = system: DU-145
SF-539 = system: SF-539
NCI-H460 = system: NCI-H460
SK-MEL-5 = system: SK-MEL-5
OVCAR-4 = system: OVCAR-4
SK-OV-3 = system: SK-OV-3
NCI-H226 = system: NCI-H226
MCF7 = system: MCF7
SF-268 = system: SF-268
KM12 = system: KM12
CCRF-CEM = system: CCRF-CEM
MOLT-4 = system: MOLT-4

## O=S(=O)(c1cnccc1N1CCN(CCO)CC1)N1CCCC1
EKVX
  GI50: > 100 µM (inactive)
Hs-578T
  GI50: > 100 µM (inactive)
CAKI-1
  GI50: > 100 µM (inactive)
A549
  GI50: > 100 µM (inactive)
NCI-H522
  GI50: > 100 µM (inactive)
SF-295
  GI50: > 100 µM (inactive)
HOP-92
  GI50: > 100 µM (inactive)
SW-620
  GI50: > 100 µM (inactive)
MDA-MB-435
  GI50: > 100 µM (inactive)
PC-3
  GI50: > 100 µM (inactive)
SN12C
  GI50: > 100 µM (inactive)
OVCAR-8
  GI50: > 100 µM (inactive)
Malme-3M
  GI50: > 100 µM (inactive)
UO-31
  GI50: > 100 µM (inactive)
T47D
  GI50: > 100 µM (inactive)
OVCAR-3
  GI50: > 100 µM (inactive)
U-251
  GI50: > 100 µM (inactive)
NCI/ADR-RES
  GI50: > 100 µM (inactive)
HT-29
  GI50: > 100 µM (inactive)
MDA-MB-231
  GI50: > 100 µM (inactive)
RXF 393
  GI50: > 100 µM (inactive)
LOX IMVI
  GI50: > 100 µM (inactive)
OVCAR-5
  GI50: > 100 µM (inactive)
HCT-15
  GI50: > 100 µM
SK-MEL-2
  GI50: > 100 µM (inactive)
SNB-75
  GI50: > 100 µM (inactive)
HCC 2998
  GI50: > 100 µM (inactive)
TK-10
  GI50: > 100 µM (inactive)
RPMI-8226
  GI50: > 100 µM (inactive)
MDA-N
  GI50: > 100 µM (inactive)
HOP-62
  GI50: > 100 µM (inactive)
786-0
  GI50: > 100 µM (inactive)
A498
  GI50: > 100 µM (inactive)
NCI-H23
  GI50: > 100 µM (inactive)
UACC-62
  GI50: > 100 µM (inactive)
ACHN
  GI50: > 100 µM (inactive)
SR
  GI50: > 100 µM (inactive)
M14
  GI50: > 100 µM (inactive)
IGROV-1
  GI50: > 100 µM (inactive)
HL-60
  GI50: > 100 µM (inactive)
SK-MEL-28
  GI50: > 100 µM (inactive)
K562
  GI50: > 100 µM (inactive)
COLO 205
  GI50: > 100 µM (inactive)
BT-549
  GI50: > 100 µM (inactive)
SNB-19
  GI50: > 100 µM (inactive)
UACC-257
  GI50: > 100 µM (inactive)
HCT-116
  GI50: > 100 µM (inactive)
DU-145
  GI50: > 100 µM (inactive)
SF-539
  GI50: > 100 µM (inactive)
NCI-H460
  GI50: > 100 µM (inactive)
SK-MEL-5
  GI50: > 100 µM (inactive)
OVCAR-4
  GI50: > 100 µM (inactive)
SK-OV-3
  GI50: > 100 µM (inactive)
NCI-H226
  GI50: > 100 µM (inactive)
MCF7
  GI50: > 100 µM (inactive)
SF-268
  GI50: > 100 µM (inactive)
KM12
  GI50: > 100 µM (inactive)

## CC1(C)OC(=O)N(c2ccccc2)C12C=Cc1cc([N+](=O)[O-])cc([N+](=O)[O-])c1O2 (centres undefined)
EKVX
  GI50: 91.8 µM (inactive)
Hs-578T
  GI50: 59.8 µM (inactive)
CAKI-1
  GI50: > 100 µM (inactive)
A549
  GI50: > 100 µM (inactive)
NCI-H522
  GI50: 25.2 µM (inactive)
SF-295
  GI50: > 100 µM (inactive)
HOP-92
  GI50: 12.4 µM (inactive)
SW-620
  GI50: > 100 µM (inactive)
MDA-MB-435
  GI50: 83.9 µM (inactive)
PC-3
  GI50: 91.2 µM (inactive)
SN12C
  GI50: > 100 µM (inactive)
OVCAR-8
  GI50: > 100 µM (inactive)
UO-31
  GI50: 34.2 µM (inactive)
T47D
  GI50: > 100 µM (inactive)
OVCAR-3
  GI50: 97.7 µM (inactive)
U-251
  GI50: > 100 µM (inactive)
NCI/ADR-RES
  GI50: > 100 µM (inactive)
HT-29
  GI50: > 100 µM (inactive)
MDA-MB-231
  GI50: > 100 µM (inactive)
RXF 393
  GI50: > 100 µM (inactive)
LOX IMVI
  GI50: > 100 µM (inactive)
OVCAR-5
  GI50: > 100 µM (inactive)
HCT-15
  GI50: > 100 µM
SK-MEL-2
  GI50: > 100 µM (inactive)
SNB-75
  GI50: 66.5 µM (inactive)
HCC 2998
  GI50: > 100 µM (inactive)
TK-10
  GI50: > 100 µM (inactive)
RPMI-8226
  GI50: > 100 µM (inactive)
MDA-N
  GI50: > 100 µM (inactive)
HOP-62
  GI50: 97.9 µM (inactive)
786-0
  GI50: > 100 µM (inactive)
A498
  GI50: 81.3 µM (inactive)
NCI-H23
  GI50: > 100 µM (inactive)
UACC-62
  GI50: 61 µM (inactive)
ACHN
  GI50: > 100 µM (inactive)
SR
  GI50: > 100 µM (inactive)
M14
  GI50: 61.5 µM (inactive)
IGROV-1
  GI50: > 100 µM (inactive)
HL-60
  GI50: 61.9 µM (inactive)
SK-MEL-28
  GI50: > 100 µM (inactive)
K562
  GI50: 89.3 µM (inactive)
COLO 205
  GI50: > 100 µM (inactive)
BT-549
  GI50: > 100 µM (inactive)
CCRF-CEM
  GI50: > 100 µM (inactive)
SNB-19
  GI50: > 100 µM (inactive)
UACC-257
  GI50: 50.2 µM (inactive)
HCT-116
  GI50: > 100 µM (inactive)
DU-145
  GI50: > 100 µM (inactive)
NCI-H460
  GI50: > 100 µM (inactive)
MOLT-4
  GI50: > 100 µM (inactive)
SK-MEL-5
  GI50: > 100 µM (inactive)
OVCAR-4
  GI50: 92 µM (inactive)
SK-OV-3
  GI50: > 100 µM (inactive)
NCI-H226
  GI50: > 100 µM (inactive)
MCF7
  GI50: > 100 µM (inactive)
SF-268
  GI50: 98.9 µM (inactive)
KM12
  GI50: > 100 µM (inactive)

## Cc1ccc2c(c1)SSSSS2
EKVX
  GI50: 23.3 µM (inactive)
Hs-578T
  GI50: 26.9 µM (inactive)
CAKI-1
  GI50: 21 µM (inactive)
A549
  GI50: 20.4 µM (inactive)
NCI-H522
  GI50: 16.3 µM (inactive)
SF-295
  GI50: 19.8 µM (inactive)
HOP-92
  GI50: 18.5 µM (inactive)
SW-620
  GI50: 15.1 µM (inactive)
MDA-MB-435
  GI50: 21 µM (inactive)
PC-3
  GI50: 22.5 µM (inactive)
SN12C
  GI50: 16.5 µM (inactive)
OVCAR-8
  GI50: 21.9 µM (inactive)
Malme-3M
  GI50: 17.7 µM (inactive)
UO-31
  GI50: 16.3 µM (inactive)
T47D
  GI50: 12.6 µM (inactive)
OVCAR-3
  GI50: 21.8 µM (inactive)
U-251
  GI50: 34.3 µM (inactive)
NCI/ADR-RES
  GI50: 25.4 µM (inactive)
HT-29
  GI50: 28.1 µM (inactive)
MDA-MB-231
  GI50: 25.6 µM (inactive)
RXF 393
  GI50: 21.1 µM (inactive)
LOX IMVI
  GI50: 16.2 µM (inactive)
OVCAR-5
  GI50: 22.1 µM (inactive)
HCT-15
  GI50: 14.1 µM
SNB-75
  GI50: 23.8 µM (inactive)
HCC 2998
  GI50: 17.7 µM (inactive)
TK-10
  GI50: 20 µM (inactive)
MDA-N
  GI50: 23.4 µM (inactive)
HOP-62
  GI50: 20.2 µM (inactive)
786-0
  GI50: 15.8 µM (inactive)
A498
  GI50: 18.9 µM (inactive)
NCI-H23
  GI50: 20.8 µM (inactive)
UACC-62
  GI50: 18.3 µM (inactive)
ACHN
  GI50: 18.4 µM (inactive)
SR
  GI50: 40.3 µM (inactive)
M14
  GI50: 21.3 µM (inactive)
IGROV-1
  GI50: 19.3 µM (inactive)
HL-60
  GI50: 20 µM (inactive)
SK-MEL-28
  GI50: 17.1 µM (inactive)
K562
  GI50: 22.1 µM (inactive)
COLO 205
  GI50: 29.4 µM (inactive)
BT-549
  GI50: 19.8 µM (inactive)
CCRF-CEM
  GI50: 4.1 µM (inactive)
SNB-19
  GI50: 20.6 µM (inactive)
UACC-257
  GI50: 17.6 µM (inactive)
HCT-116
  GI50: 14.3 µM (inactive)
DU-145
  GI50: 16.6 µM (inactive)
NCI-H460
  GI50: 18.4 µM (inactive)
MOLT-4
  GI50: 30.5 µM (inactive)
SK-MEL-5
  GI50: 19.1 µM (inactive)
OVCAR-4
  GI50: 18.3 µM (inactive)
SK-OV-3
  GI50: 21.9 µM (inactive)
MCF7
  GI50: 18.6 µM (inactive)
SF-268
  GI50: 25.8 µM (inactive)
KM12
  GI50: 18.9 µM (inactive)

— ChEMBL document CHEMBL1201862, “PubChem BioAssay data set” (2004)
